# Source: patent publication US5846742A, “Selecting substances for treating glucocorticoid-mediated inflammation or immune diseases using Tripterygium wilfordii Hook F extracts” (Board of Regents, The University of Texas System, priority 1997, dated 1998)
# Values joined by “and” are separate entries in the source; they are usually repeats but may differ in a detail not shown here. Equal entries are not always repeated. Where two headings read alike, the source gives them in different places.
# Key:
# T cells [1] = test: PHA-induced T cell proliferation, wilforonide (924); assay type: cell-based, human; conditions: for Mean cpm: control 42.0
# Description: The molecular groups responsible for the immune suppressive function of these compounds are unknown, however, the core structure of diterpenoids which may be related to their activity consists of an α-β-unsaturated 5 element lactone which can be identified by Kedde reagents. HPLC was used to fractionate the ethyl acetate extract of TwHF and the Kedde reagents were employed to trace the fractions. Then, the effect of selected fractions on the in vitro IL-2 production and [^3 H]-thymidine incorporation by PHA-activated T cells was determined. Fractions that inhibit these T cell functions were selected and the chromatographic pattern was identified with HPLC. One fraction was further purified with HPLC and crystallized repeatedly; a pure, crystallized compound was obtained and designated "924".
# [^3 H]-thymidine was added for the last 14 hours of culture. Each concentration was run in quadruplicate (4 times) and the results for each concentration averaged to provide a mean. The mean cpm×10^3 values were combined and expressed as a percent of T cell inhibition.
# or absence of the indicated concentrations of wilforonide for 3 days.
# [^3 H]-Thymidine was added for the last 14 hours. Data are from 4
# independent experiments.
# PHA-stimulated T cells = test: Viability of PHA-stimulated T cells, 924; assay type: cell-based, human
# [2] = Viability of PHA-stimulated T cells, 924; assay type: cell-based, human; conditions: t cells; 1,000 ng/ml; 0 ng/ml=22% of control; FIG. 20D; read-out: Cell viability, % of control
# Solubility of 924 = assay type: physicochemical
# Description: The dried woody skinned part of the root of TwHF was extracted with ethanol. The solution was concentrated at reduced pressure, and the residue was dissolved in ethyl acetate. This solution was passed through Al2 O3 with ethanol as an eluent. The eluate was evaporated and the residue chromatographed on silica gel with chloroform, chloroform-ether and ethyl acetate as successive eluent. The fractions eluted with chloroform-ether were purified on a preparative HPLC column packed with Nova-Pak C18 and equipped with a 214 detector. Methanol-water was the mobile phase. A fraction having positive reaction to Kedde reagent was collected and extracted with chloroform. The chloroform solution was evaporated to dryness and the residue crystallized in dichloromethane-hexane to yield 924.
# IL-2R = IL-2R expression by PHA-activated T cells, 924; assay type: cell-based, human
# T cells [3] = test: Antigen (SK)-induced T cell proliferation, wilforonide; assay type: cell-based, human; conditions: for IC50: 120 h, read-out: ID50, antigen-induced T cell proliferation; for IC50 / inhibition at 0.01 µg/mL: 5 days
# Description: The cells were allowed to culture for five days. The cultures were pulsed with [^3 H]-thymidine for the last 24 hours of culture. […] ID50 were calculated based on the regression formula by using the fx-3600 calculator. T cells cultured with SK or SK+IL-2 or SK+PMA gave cpm of 1.87×10^3, 4.99×10^3 and 6.67×10^3, respectively.
# *T cells were cultured with or without SK(1 mg/ml) or SK plus IL2(50
# μ/ml) or SK plus PMA(.2 ng/ml) in the presence or absence of indicated
# concentrations of wilforonide for 5 days. Cultures were pulsed with
# [^3 H]-thymidine for the last 24 hours. Data represent the mean of th
# experiments. ID50 were calculated based on the regression formula by
# using the fx3600 calculator. T cells cultured with SK or SL + IL2 or SK +
# [4] = test system: IL-2 production by T cells; test: PHA-induced IL-2 production, wilforonide (924); assay type: cell-based, human; conditions: for IL-2, mean: control 21.395
# Description: The effects of wilforonide on IL-2 production was also examined. […] Cell-free supernatants were diluted 1 to 80 and the IL-2 content assayed with CTLL-2 cells.
# T cells [5] = test: Antigen (SK)-induced T cell proliferation, wilforonide; assay type: cell-based; conditions: Homo sapiens, read-out: % inhibition of [3H]-thymidine incorporation
compound,measurement,setting,value
"C[C@]12CCC3=C(COC3=O)[C@@H]1CCC(=O)C2 (relative stereo) [Wilforonide, naphtho-[1,2-c] furan-3,7(1H,5H)-dione, 4,5a,6,8,9,9a-hexahydro-5a-methyl(5aR-trans)-[104331-87-5]]","cpm, individual experiments 1-4","T cells [1]; 10 ng/ml, PHA 0.5 μg/ml, 3 days",23.5 cpm × 10^3 and 37.1 cpm × 10^3 and 57.5 cpm × 10^3 and 36.3 cpm × 10^3
same,Mean cpm,T cells [1]; 10 ng/ml,38.6 cpm × 10^3
same,"cpm, individual experiments 1-4",T cells [1]; 50 ng/ml,30.2 cpm × 10^3 and 35.3 cpm × 10^3 and 57.0 cpm × 10^3 and 44.8 cpm × 10^3
same,Mean cpm,T cells [1]; 50 ng/ml,41.8 cpm × 10^3
same,"cpm, individual experiments 1-4",T cells [1]; 100 ng/ml,13.0 cpm × 10^3 and 37.6 cpm × 10^3 and 55.2 cpm × 10^3 and 26.7 cpm × 10^3
same,Mean cpm,T cells [1]; 100 ng/ml,33.1 cpm × 10^3
same,"cpm, individual experiments 1-4",T cells [1]; 200 ng/ml,6.8 cpm × 10^3 and 33.9 cpm × 10^3 and 56.5 cpm × 10^3 and 26.4 cpm × 10^3
same,Mean cpm,T cells [1]; 200 ng/ml,30.9 cpm × 10^3
same,"cpm, individual experiments 1-4",T cells [1]; 500 ng/ml,0.3 cpm × 10^3 and 19.7 cpm × 10^3 and 30.9 cpm × 10^3 and 11.3 cpm × 10^3
same,Mean cpm,T cells [1]; 500 ng/ml,15.6 cpm × 10^3
same,T cell proliferation,"T cells [1]; 1,000 ng/ml, FIG. 20C",no cell proliferation was evident
same,inhibition at 0.01 µg/mL,"T cells [1]; Homo sapiens, T-cell, 72 h, 10 ng/ml, PHA 0.5 μg/ml, 3 days",8.09%
same,IC50,"T cells [1]; Homo sapiens, T-cell, 72 h, PHA 0.5 μg/ml, 3 days, read-out: ID50, PHA-induced T cell proliferation",0.391 µg/mL
same,inhibition at 0.001 µg/mL,"T cells [1]; Homo sapiens, T-cell, 1 ng/ml, PHA, read-out: Degree of inhibition of T cell proliferation",14.6%
same,inhibition at 0.05 µg/mL,"T cells [1]; Homo sapiens, T-cell, 50 ng/ml, PHA",0.48%
same,inhibition at 0.1 µg/mL,"T cells [1]; Homo sapiens, T-cell, 100 ng/ml, PHA, read-out: % inhibition",21.2%
same,inhibition at 0.1 µg/mL,"T cells [1]; Homo sapiens, T-cell, 100 ng/ml, PHA, read-out: Degree of inhibition of T cell proliferation",54.2%
same,inhibition at 0.2 µg/mL,"T cells [1]; Homo sapiens, T-cell, 200 ng/ml, PHA",26.4%
same,inhibition at 0.5 µg/mL,"T cells [1]; Homo sapiens, T-cell, 500 ng/ml, PHA",62.9%
same,Viability of PHA-stimulated T cells,PHA-stimulated T cells; 1 ng/ml up to 1000 ng/ml,did not affect the viability of PHA-stimulated T cells
same,Cell viability,PHA-stimulated T cells; 1 to 500 ng/ml,did not differ significantly in terms of cell viability
same,in vitro ID50/LD50 of T cell proliferation,PHA-stimulated T cells; t cells,more than 10
same,viability,[2],35%
same,Solubility,Solubility of 924,"soluble in ethanol, and ethanol and chloroform"
same,IL-2R expression,IL-2R; 500 ng/ml,did not affect the IL-2R expression
same,IL-2R expression,IL-2R; PHA-activated T cells,no effect
same,IC50,"T cells [3]; Homo sapiens, T-cell, SK + IL-2 (50 u/ml)",0.476 µg/mL
same,IC50,"T cells [3]; Homo sapiens, T-cell, SK + PMA (0.2 ng/ml)",0.613 µg/mL
same,IC50,"T cells [3]; Homo sapiens, T-cell, SK",0.127 µg/mL
same,inhibition at 0.01 µg/mL,"T cells [3]; Homo sapiens, T-cell, SK + IL-2, 10 ng/ml, read-out: % inhibition of [3H]-thymidine incorporation",19.6%
same,inhibition at 0.5 µg/mL,"T cells [3]; Homo sapiens, T-cell, SK + IL-2, 500 ng/ml, read-out: % inhibition of [3H]-thymidine incorporation",61.7%
same,inhibition at 0.01 µg/mL,"T cells [3]; Homo sapiens, T-cell, SK + PMA, 10 ng/ml, read-out: % inhibition of [3H]-thymidine incorporation",22.7%
same,inhibition at 0.05 µg/mL,"T cells [3]; Homo sapiens, T-cell, SK + PMA, 50 ng/ml, read-out: % inhibition of [3H]-thymidine incorporation",17.7%
same,inhibition at 0.5 µg/mL,"T cells [3]; Homo sapiens, T-cell, SK + PMA, 500 ng/ml, read-out: % inhibition of [3H]-thymidine incorporation",53.3%
same,inhibition at 0.01 µg/mL,"T cells [3]; Homo sapiens, T-cell, SK, 10 ng/ml, read-out: % inhibition of [3H]-thymidine incorporation",42.1%
same,Inhibition of response to SK on adding IL2 or PMA,T cells [3]; low concentrations,partially overcome by adding IL2 or PMA
same,"IL-2, individual experiments 1-4","[4]; 10 ng/ml, PHA 1 μg/ml, overnight",1.628 unit/ml and 20.723 unit/ml and 27.374 unit/ml and 3.385 unit/ml
same,"IL-2, mean",[4]; 10 ng/ml,13.278 unit/ml
same,"IL-2, individual experiments 1-4",[4]; 50 ng/ml,1.664 unit/ml and 26.983 unit/ml and 4.509 unit/ml and 6.042 unit/ml
same,"IL-2, mean",[4]; 50 ng/ml,9.795 unit/ml
same,"IL-2, individual experiments 1-4",[4]; 100 ng/ml,0.800 unit/ml and 11.160 unit/ml and 10.170 unit/ml and 4.982 unit/ml
same,"IL-2, mean",[4]; 100 ng/ml,6.803 unit/ml
same,"IL-2, individual experiments 1-4",[4]; 200 ng/ml,0.850 unit/ml and 10.301 unit/ml and 8.502 unit/ml and 1.773 unit/ml
same,"IL-2, mean",[4]; 200 ng/ml,5.357 unit/ml
same,inhibition at 0.01 µg/mL,"[4]; Homo sapiens, T-cell, 10 ng/ml",37.9%
same,inhibition at 0.05 µg/mL,"[4]; Homo sapiens, T-cell, 50 ng/ml",54.2%
same,inhibition at 0.1 µg/mL,"[4]; Homo sapiens, T-cell, 100 ng/ml",68.2%
same,inhibition at 0.2 µg/mL,"[4]; Homo sapiens, T-cell, 200 ng/ml",75%
same,IC50,"[4]; Homo sapiens, T-cell, PHA 1 μg/ml, overnight, read-out: ID50, PHA-induced IL-2 production",0.0421 µg/mL
same,inhibition at 0.05 µg/mL,"T cells [5]; SK + IL-2, 50 ng/ml",12.4%
same,inhibition at 0.1 µg/mL,"T cells [5]; SK + IL-2, 100 ng/ml",14.5%
same,inhibition at 1 µg/mL,"T cells [5]; SK + IL-2, 1,000 ng/ml",86.2%
same,inhibition at 0.1 µg/mL,"T cells [5]; SK + PMA, 100 ng/ml",20.3%
same,inhibition at 1 µg/mL,"T cells [5]; SK + PMA, 1,000 ng/ml",65.4%
same,inhibition at 0.05 µg/mL,"T cells [5]; SK, 50 ng/ml",44.5%
same,inhibition at 0.1 µg/mL,"T cells [5]; SK, 100 ng/ml",49.1%
same,inhibition at 0.5 µg/mL,"T cells [5]; SK, 500 ng/ml",75.2%
same,inhibition at 1 µg/mL,"T cells [5]; SK, 1,000 ng/ml",84.2%
